Among the data in PubChem BioAssay AID2842 (Southern Research Institute, 2010) are IC90 values, retold here.

This test has as its system M. tuberculosis H37Rv growth inhibition. Nature of the test: Mycobacterium tuberculosis H37Rv growth inhibition, putative kinase inhibitor library, confirmatory dose response (AID 2842).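 Further: bacteria incubated one week before Alamar blue readout.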

In brackets after ≈: the same amount, converted by molar mass.

The term IC90 denotes the point of the concentration-response curve where the effect stands at 90%.

In the case of `NC(=O)c1c(NC(=O)c2ccc([N+](=O)[O-])s2)sc2c1CCN(Cc1ccccc1)C2`, the IC90 was 0.46 µg/mL (≈ 1.04 µM).
`Cc1ccc(C)c(-c2nnc(NC(=O)c3ccc([N+](=O)[O-])s3)o2)c1`: the IC90 is 3.09 µg/mL (≈ 8.97 µM).
Next, `O=C(Nc1nnc(-c2cccs2)o1)c1ccco1`: 3.41 µg/mL (≈ 13.1 µM); `O=C(Nc1nnc(-c2ccccc2Cl)o1)c1nc2ccccc2s1`: 1.75 µg/mL (≈ 4.9 µM).
Next, `Cc1ccc(Nc2nc(Nc3cccc(F)c3)nc(N3CCOCC3)n2)cc1C`: 13.5 µg/mL (≈ 34.2 µM); `Cc1ccc(CC(=O)N(CCCn2ccnc2)c2nc3ccccc3s2)c(C)c1`: 4.82 µg/mL (≈ 11.9 µM).
For the compound `O=C(Nc1nnc(-c2ccco2)o1)c1cccs1`, the IC90 was 3.12 µg/mL (≈ 11.9 µM).
Next, `COC(=O)C(C)Oc1ccc2cc(-c3ccc(OC)cc3)c(=O)oc2c1` (stereo not given): 1.07 µg/mL (≈ 3.02 µM); `O=C1CN(C(=O)c2cc(Cl)ccc2Cl)C(c2ccccc2)c2cc(Cl)ccc2N1` (stereo not given): 6.59 µg/mL (≈ 14.8 µM); `Cc1ccc(C)c(-c2nnc(NC(=O)C3=COCCO3)o2)c1`: < 0.2 µg/mL.
Next, `CC(=O)Nc1ccc2nc(Nc3nc4ccc(Cl)cc4s3)sc2c1`: 8.93 µg/mL (≈ 23.8 µM).
Regarding `COC(=O)c1c(NC(=O)c2cc3ccccc3cc2OC)sc2c1CC(C)(C)NC2(C)C`, the IC90 was 31.8 µg/mL (≈ 70.2 µM).
Next, `O=C(CS(=O)(=O)c1ccccc1)Nc1cccc2c1C(=O)c1ccccc1C2=O`: 20.9 µg/mL (≈ 51.5 µM); `O=C(c1ccco1)N(CCCn1ccnc1)c1nc2c(F)cc(F)cc2s1`: 0.75 µg/mL (≈ 1.93 µM); `O=C(Nc1nnc(-c2ccc3c(c2)OCCO3)o1)C1CC1`: 33.9 µg/mL (≈ 118 µM).
Next, `Cc1ccc(-n2nnc3c(SCC(=O)N4CCOCC4)ncnc32)cc1`: 12.3 µg/mL (≈ 33.3 µM); `COC(=O)c1c(NC(=O)c2ccc3c(c2)CCCC3)sc2c1CCN(C(C)=O)C2`: 6.21 µg/mL (≈ 15.1 µM).
Turning to `CCOC(=O)c1sc(Nc2nc3ccc(OC)cc3s2)cc1C`, the 90% effect concentration (IC90) is 83.8 µg/mL (≈ 240 µM).
Next, `Cc1cccc2sc(NNC(=O)c3cc4ccccc4oc3=O)nc12`: 2.94 µg/mL (≈ 8.37 µM); `Cc1ccc(-n2ncc3c(NNC(=O)c4ccc(Cl)cc4Cl)ncnc32)cc1`: 11.9 µg/mL (≈ 28.7 µM).
On to `O=C1c2cccc3cccc(c23)C(=O)N1CCc1ccc(S(=O)(=O)N2CCCCC2)cc1`, for which the concentration for an effect of 90% (IC90) is 5.87 µg/mL (≈ 13.1 µM).
Next, `O=C(Nc1nnc(C2=COCCO2)o1)c1cc(Cl)cc(Cl)c1`: 53.7 µg/mL (≈ 157 µM); `COc1ccc2nc(Nc3nc4c(F)cccc4s3)sc2c1`: 23.4 µg/mL (≈ 70.8 µM); `O=C1Nc2ccccc2/C1=C/C(=O)c1ccc([N+](=O)[O-])cc1`: 47.7 µg/mL (≈ 162 µM).
Next, `O=C(Nc1nnc(-c2ccc(Br)cc2)o1)C1=COCCO1`: 24.9 µg/mL (≈ 70.8 µM); `Cc1[nH]c2ccccc2c1SCCNC(=O)c1cc2ccccc2oc1=O`: < 0.2 µg/mL.
Next, `COc1cccc2sc(Nc3nc4ccccc4s3)nc12`: 3.41 µg/mL (≈ 10.9 µM); `CCC(=O)Nc1nnc(-c2ccc(OC)cc2)o1`: 4.39 µg/mL (≈ 17.8 µM).
Regarding `Cc1ccc(C)c(-c2nnc(NC(=O)c3cccc(Cl)c3)o2)c1`, the IC90 was 16.3 µg/mL (≈ 49.8 µM).
Next, `COc1ccc2nc(Nc3ccc4nc(C)sc4c3)sc2c1`: 15.2 µg/mL (≈ 46.5 µM).
In the case of `O=C1N/C(=N/N=C/c2ccccc2O)SC1Cc1ccc(Cl)cc1Cl` (stereo not given), the IC90 was 1.32 µg/mL (≈ 3.35 µM).
Next, `COC(=O)c1c(NC(=O)Cc2cccc3ccccc23)sc2c1CC(C)(C)NC2(C)C`: 3.73 µg/mL (≈ 8.54 µM).
Next, `O=C(COc1ccc(Cl)cc1)N1CCN(c2ccc(N3CCCCC3)nn2)CC1`: 14.3 µg/mL (≈ 34.3 µM).
As for `CCCCn1c(N2CCN(Cc3ccc(Cl)c(Cl)c3)CC2)nc2c1c(=O)[nH]c(=O)n2C`, the IC90 is 7.15 µg/mL (≈ 15.4 µM).
Next, `O=C(Nc1nnc(-c2ccc3c(c2)CCCC3)o1)C1=COCCO1`: 9.82 µg/mL (≈ 30 µM); `Cc1ccc(-c2csc(Nc3nc4cc5c(cc4s3)OCO5)n2)o1`: 26.6 µg/mL (≈ 74.5 µM); `COc1ccc2nc(N=Nc3c(C)[nH]n(-c4ccccc4)c3=O)sc2c1`: 7.7 µg/mL (≈ 21.1 µM).
Next, `O=C(CCSc1ccccc1)Nc1nnc(-c2ccc3c(c2)CCCC3)o1`: 1.93 µg/mL (≈ 5.09 µM); `CCOc1ccc(C(=O)N2CC(=O)Nc3ccc(Br)cc3C2c2ccccc2)cc1` (stereo not given): 25.3 µg/mL (≈ 54.3 µM).
Next, `O=C(OCn1nnc2ccccc2c1=O)c1ccco1`: 4.76 µg/mL (≈ 17.5 µM); `O=c1cnnc(N/N=C/c2cc(Br)ccc2O)[nH]1`: < 0.2 µg/mL; `COc1cccc2sc(N(CCCn3ccnc3)C(=O)c3ccco3)nc12`: 12.4 µg/mL (≈ 32.5 µM).
In the case of `Fc1ccc2nc(Nc3nc(-c4ccc(Cl)s4)cs3)sc2c1`, the 90% effect concentration (IC90) was 7.87 µg/mL (≈ 21.4 µM).
As for `Cc1ccc(C(=O)Nc2nnc(-c3cc(C)ccc3C)o2)cc1`, the IC90 is 41.5 µg/mL (≈ 135 µM).
Take `O=C(Nc1nnc(-c2ccc3c(c2)CCCC3)o1)C1CCCCC1`: the IC90 is 40.2 µg/mL (≈ 124 µM).
Next, `Cc1ccccc1C(=O)N1N=C(c2c(-c3ccccc3)c3cc(Br)ccc3[nH]c2=O)CC1c1ccccc1` (stereo not given): 1.68 µg/mL (≈ 2.99 µM); `CCOc1ccc2nc(Nc3nc4ccc(NC(C)=O)cc4s3)sc2c1`: 7.84 µg/mL (≈ 20.4 µM).
Next, `Cn1c(/C(C#N)=C/c2c[nH]c3ccccc23)nc2ccccc21`: 10.2 µg/mL (≈ 34.3 µM).
Next, `O=C1N/C(=N\N=C\c2ccccc2O)SC1Cc1ccc(F)cc1` (stereo not given): < 0.2 µg/mL.
For `O=C(NCCSc1c[nH]c2ccccc12)Nc1c[nH]c2ccccc12`, the IC90 was 10.2 µg/mL (≈ 29.1 µM).
On to `CCOC(=O)c1cc(NC(=O)Nc2ccc(Cl)c(Cl)c2)c(C)nc1C`, for which the IC90 is 12.4 µg/mL (≈ 32.5 µM).
Next, `Cc1c(Cc2ccc(Cl)cc2)c(NCCCN(C)C)n2c(nc3ccccc32)c1C#N`: 2.21 µg/mL (≈ 5.12 µM); `O=C(Nc1nnc(-c2ccc(Cl)s2)o1)c1ccc([N+](=O)[O-])o1`: 0.85 µg/mL (≈ 2.49 µM); `Cc1ccc(-c2nnc(NC(=O)c3ccc(S(=O)(=O)N4CCC(C)CC4)cc3)o2)c(C)c1`: 46.7 µg/mL (≈ 103 µM).
Next, `CCCCN1C(=O)c2cccc3c(NC(=O)c4ccc([N+](=O)[O-])s4)ccc1c23`: 22.7 µg/mL (≈ 57.3 µM).
Next, `COC(=O)C(C)Oc1ccc2cc(-c3ccc(OC)c(OC)c3)c(=O)oc2c1` (stereo not given): 6.7 µg/mL (≈ 17.4 µM).
Turning to `CC(C)C(=O)Nc1nnc(-c2cc(Cl)ccc2Cl)o1`, the IC90 is 26.9 µg/mL (≈ 89.5 µM).
Regarding `Clc1cccc(N2CCN(c3nc(Nc4ccccc4)c4nccnc4n3)CC2)c1`, the IC90 was 4.58 µg/mL (≈ 11 µM).
Next, `O=C1CN(C(=O)c2cccc3ccccc23)C(c2ccccc2)c2cc(Br)ccc2N1` (stereo not given): 8.15 µg/mL (≈ 17.3 µM); `COc1ccccc1-c1nnc(NC(=O)c2ccc3c(c2)CCCC3)o1`: 8.04 µg/mL (≈ 23 µM).
Next, `Cc1ccc(-c2nnc(NC(=O)c3ccco3)o2)c(C)c1`: 4.51 µg/mL (≈ 15.9 µM).
In the case of `CN(C)c1ccc(C(=O)Nc2nnc(C3=COCCO3)o2)cc1`, the IC90 was 9.01 µg/mL (≈ 28.5 µM).
Next, `COc1ccc(-c2nnc(NC(=O)C(C)C)o2)cc1`: 19.9 µg/mL (≈ 76.3 µM).
In the case of `Oc1cc(OCc2ccccc2Cl)ccc1-c1[nH]ncc1-c1ccccc1`, the IC90 is 7.69 µg/mL (≈ 20.4 µM).
Next, `O=C(CCc1ccccc1)Nc1nnc(-c2cccs2)o1`: 42.8 µg/mL (≈ 143 µM); `CCc1ccc2nc(Nc3nc4ccc(S(C)(=O)=O)cc4s3)sc2c1`: 7.52 µg/mL (≈ 19.3 µM).
Next, `O=C(Nc1nc(-c2ccc3c(c2)CCCC3)cs1)c1ccc2c(c1)OCCO2`: 14.5 µg/mL (≈ 36.9 µM); `Nc1[nH]nc2nc(N3CCCCC3)nc(-c3ccc4c(c3)OCO4)c12`: 11.6 µg/mL (≈ 34.3 µM); `CCCCc1ccc2[nH]cc(C(=O)O)c(=O)c2c1`: 14.5 µg/mL (≈ 59 µM).
Next, `CCOC(=O)C(C)Sc1ncnc2c1nnn2Cc1ccc(F)cc1` (stereo not given): 0.51 µg/mL (≈ 1.41 µM); `Cc1ccc(CC(=O)Nc2nnc(-c3ccco3)o2)c(C)c1`: 17.9 µg/mL (≈ 60 µM); `Cc1ccc(C)c(-c2nnc(NC(=O)c3ccccc3C)o2)c1`: 2.48 µg/mL (≈ 8.07 µM).
As for `CCOc1ccc2nc(N(CCCn3ccnc3)C(=O)Cc3ccc(F)cc3)sc2c1`, the IC90 is 3.05 µg/mL (≈ 6.96 µM).
As for `N/C(=N\OC(=O)c1ccccc1F)c1ccccn1`, the IC90 is 18.7 µg/mL (≈ 72.2 µM).
Next, `CCOC(=O)COc1ccc2cc(-c3ccc(OC)c(OC)c3)c(=O)oc2c1`: 2.18 µg/mL (≈ 5.67 µM).
Take `COc1ccc2c(c1)c(=O)c(C(=O)c1ccc(C)cc1)cn2Cc1cccc(C)c1`: the IC90 is 6.97 µg/mL (≈ 17.5 µM).
On to `CCSc1ccc(C(=O)Nc2nnc(-c3ccco3)o2)cc1`, for which the IC90 is 0.71 µg/mL (≈ 2.25 µM).
Next, `Cc1cc(NS(=O)(=O)c2ccc(NC(=O)CCCOc3ccc(Cl)cc3)cc2)no1`: 19.1 µg/mL (≈ 42.5 µM).
Next, `CCOc1cccc2sc(N(CCCn3ccnc3)C(=O)Cc3ccc(F)cc3)nc12`: 4.84 µg/mL (≈ 11 µM); `Cc1ccc(-c2nnc(NC(=O)Cc3ccccc3)o2)c(C)c1`: 14.8 µg/mL (≈ 48.1 µM); `CN1CCc2c(sc(NC(=O)c3ccc([N+](=O)[O-])o3)c2C(N)=O)C1`: 10.5 µg/mL (≈ 30.1 µM).
Next, `CSc1ccc2nc(Nc3cccc(C)c3C)sc2c1`: 18.8 µg/mL (≈ 62.7 µM).
Regarding `COc1cccc(/C=N/Nc2nc(=O)[nH]nc2C)c1O`, the IC90 is 0.5 µg/mL (≈ 1.82 µM).
Next, `Cc1cc(C)cc(OCCCn2c(CO)nc3ccccc32)c1`: 14 µg/mL (≈ 45 µM); `c1ccc2c(c1)CCN(c1nc3cc4c(cc3s1)OCCO4)C2`: 16 µg/mL (≈ 49.4 µM); `CS(=O)(=O)Nc1cccc(C2=NN(c3nc(-c4ccccc4)c4cc(Cl)ccc4n3)C(c3ccccc3F)C2)c1` (stereo not given): 6.67 µg/mL (≈ 11.7 µM).
Next, `Cc1ccc(-c2nnc(NC(=O)c3ccc4c(c3)CCCC4)o2)c(C)c1`: 36.9 µg/mL (≈ 106 µM); `N=C1SCC(=O)N1c1ncc(Cc2cccc(Cl)c2)s1`: 2.11 µg/mL (≈ 6.52 µM).
Next, `O=C(Nc1nnc(-c2cc(Cl)ccc2Cl)o1)c1ccccc1Cl`: 1.66 µg/mL (≈ 4.5 µM).
As to `Cc1cn2c3c(=O)[nH]c(=O)n(C)c3nc2n1CCCN(C)Cc1ccccc1`, the IC90 was 2.62 µg/mL (≈ 6.89 µM).
Next, `O=C(Cc1ccccc1)Nc1nnc(-c2ccc3c(c2)CCCC3)o1`: 55.8 µg/mL (≈ 167 µM); `O=C(Nc1nnc(-c2ccc3c(c2)CCCC3)o1)c1ccccc1`: 7.25 µg/mL (≈ 22.7 µM); `O=C1N/C(=N\N=C\c2ccccc2O)SC1Cc1ccc(Br)cc1` (stereo not given): 1.14 µg/mL (≈ 2.82 µM).
Next, `Cc1ccc(-n2ncc3c(=O)n(CC(=O)Nc4ccc([N+](=O)[O-])cc4)cnc32)cc1`: 6.91 µg/mL (≈ 17.1 µM); `O=C(c1ccc(F)cc1)N1N=C(c2c(-c3ccccc3)c3cc(Br)ccc3[nH]c2=O)CC1c1ccco1` (stereo not given): 13.1 µg/mL (≈ 23.5 µM).
Next, `O=C(Nc1nnc(-c2ccc3c(c2)CCCC3)o1)c1ccccc1Cl`: 1.11 µg/mL (≈ 3.14 µM); `O=C(Nc1cccc(-c2ccc3nnc(-c4cccnc4)n3n2)c1)c1ccc(F)cc1F`: 27.6 µg/mL (≈ 64.5 µM).
For the compound `COC(=O)c1ccc(NC(=O)CSc2nc(-c3cccc(C)c3)ns2)cc1`, the IC90 is < 0.2 µg/mL.
Next, `O=C(Nc1nnc(-c2ccccc2)o1)c1ccc2c(c1)CCCC2`: 15.5 µg/mL (≈ 48.7 µM).
Next, `Cc1ccc(-c2nnc(SCC(=O)Nc3cc(C)on3)o2)cc1`: 3.95 µg/mL (≈ 12 µM).
